# From ChEMBL document CHEMBL1201862, “PubChem BioAssay data set” (2004)
#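 96-well plates; 48 h exposure; 5 concentrations. Endpoints by linear interpolation between flanking doses. Not reached: highest tested concentration assigned. GI50 = concentration required for 50% inhibition of growth.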 Active and inactive are the calls of the source. No stated cut-off is given here; in the data, active = GI50 up to about 1.1 µM and inactive = higher.
# Columns and labels:
# Experiment in all cases: NCI anticancer screen, dose series, 48 h
# [1] = test system: DU-145
# [2] = test system: RPMI-8226
# [3] = test system: OVCAR-5
# [4] = test system: OVCAR-4
# [5] = test system: EKVX
# [6] = test system: HOP-92
# [7] = test system: NCI-H522
# [8] = test system: HL-60
# [9] = test system: SK-MEL-2
# [10] = test system: Malme-3M
# [11] = test system: A549
# [12] = test system: SK-MEL-5
# [13] = test system: SF-539
# [14] = test system: NCI/ADR-RES
# [15] = test system: MDA-MB-435
# [16] = test system: SNB-75
# [17] = test system: HCT-15
# [18] = test system: RXF 393
# [19] = test system: CAKI-1
# [20] = test system: A498
SMILES,GI50 [1],GI50 [2],GI50 [3],GI50 [4],GI50 [5],GI50 [6],GI50 [7],GI50 [8],GI50 [9],GI50 [10],GI50 [11],GI50 [12],GI50 [13],GI50 [14],GI50 [15],GI50 [16],GI50 [17] [µM],GI50 [18],GI50 [19],GI50 [20]
O=C(NNC(=O)c1ccccc1SSc1ccccc1C(=O)NNC(=O)c1ccccc1S)c1ccccc1S,6.55 µM (inactive),43.1 µM (inactive),44.5 µM (inactive),31.1 µM (inactive),15 µM (inactive),39.2 µM (inactive),0.49 µM (active),1.73 µM (inactive),23.7 µM (inactive),21.6 µM (inactive),13.4 µM (inactive),39.7 µM (inactive),13.8 µM (inactive),20 µM (inactive),16.1 µM (inactive),11.7 µM (inactive),9.16,64.9 µM (inactive),12.9 µM (inactive),
CCC(=O)Nc1ccc(/N=N/N(C)C)cc1,> 100 µM (inactive),,> 100 µM (inactive),> 100 µM (inactive),> 100 µM (inactive),12.4 µM (inactive),14.4 µM (inactive),42.8 µM (inactive),> 100 µM (inactive),2.13 µM (inactive),> 100 µM (inactive),53.7 µM (inactive),> 100 µM (inactive),> 100 µM (inactive),> 100 µM (inactive),> 100 µM (inactive),> 100,> 100 µM (inactive),,> 100 µM (inactive)
CCCC(=O)NC(C(=O)OCC)(N1CCOCC1)C(F)(F)F (stereo unspecified),> 100 µM (inactive),> 100 µM (inactive),> 100 µM (inactive),> 100 µM (inactive),> 100 µM (inactive),> 100 µM (inactive),> 100 µM (inactive),> 100 µM (inactive),> 100 µM (inactive),> 100 µM (inactive),> 100 µM (inactive),> 100 µM (inactive),> 100 µM (inactive),> 100 µM (inactive),> 100 µM (inactive),> 100 µM (inactive),> 100,> 100 µM (inactive),> 100 µM (inactive),
CC1=C[C@H]([C@H]2C=C(C)C(C(N)=O)=CN2Cc2c(Cl)cccc2Cl)N(Cc2c(Cl)cccc2Cl)C=C1C(N)=O,> 75 µM (inactive),69.7 µM (inactive),> 75 µM (inactive),55.5 µM (inactive),> 75 µM (inactive),16 µM (inactive),57.1 µM (inactive),> 75 µM (inactive),> 75 µM (inactive),> 75 µM (inactive),> 75 µM (inactive),> 75 µM (inactive),> 75 µM (inactive),> 75 µM (inactive),> 75 µM (inactive),,> 75,74.5 µM (inactive),> 75 µM (inactive),55.3 µM (inactive)
CCCCC1Cc2ccccc2-c2n1c1ccccc1[n+]2C (stereo unspecified),33.7 µM (inactive),1.94 µM (inactive),42.9 µM (inactive),24.5 µM (inactive),25.9 µM (inactive),20.4 µM (inactive),3.87 µM (inactive),3.99 µM (inactive),8.53 µM (inactive),,,4.54 µM (inactive),27.8 µM (inactive),> 100 µM (inactive),10.3 µM (inactive),,95.5,13.3 µM (inactive),> 100 µM (inactive),23.6 µM (inactive)
CC1CC(N)=Nc2ccccc2N1 (stereo unspecified),> 100 µM (inactive),> 100 µM (inactive),> 100 µM (inactive),> 100 µM (inactive),> 100 µM (inactive),,> 100 µM (inactive),> 100 µM (inactive),> 100 µM (inactive),58.2 µM (inactive),> 100 µM (inactive),> 100 µM (inactive),,> 100 µM (inactive),> 100 µM (inactive),30.1 µM (inactive),> 100,> 100 µM (inactive),> 100 µM (inactive),
CCOC(=O)CO/N=C\C1=CC(=O)C2CC1C2(C)C (stereo unspecified),> 100 µM (inactive),> 100 µM (inactive),> 100 µM (inactive),,> 100 µM (inactive),,,> 100 µM (inactive),> 100 µM (inactive),> 100 µM (inactive),,> 100 µM (inactive),> 100 µM (inactive),> 100 µM (inactive),> 100 µM (inactive),30.1 µM (inactive),> 100,> 100 µM (inactive),> 100 µM (inactive),> 100 µM (inactive)
Cc1ccc(/C=C/C(=O)c2c([O-])on[n+]2-c2ccccc2)cc1,2.74 µM (inactive),2.57 µM (inactive),4.17 µM (inactive),3.1 µM (inactive),3.6 µM (inactive),4.52 µM (inactive),2.61 µM (inactive),1.47 µM (inactive),2.11 µM (inactive),5.42 µM (inactive),3.67 µM (inactive),3.71 µM (inactive),3.28 µM (inactive),2.4 µM (inactive),2.3 µM (inactive),,1.98,1.94 µM (inactive),1.98 µM (inactive),5.86 µM (inactive)
COc1ccc(-c2cc(-c3ccccc3)n(C3OC(COC(C)=O)C(OC(C)=O)C(OC(C)=O)C3OC(C)=O)c(=S)c2C#N)cc1 (stereo unspecified),11.7 µM (inactive),3.28 µM (inactive),15.7 µM (inactive),2.6 µM (inactive),14.9 µM (inactive),4.39 µM (inactive),5.37 µM (inactive),2.61 µM (inactive),,5.87 µM (inactive),10.6 µM (inactive),6.71 µM (inactive),3.88 µM (inactive),11 µM (inactive),6.89 µM (inactive),6.38 µM (inactive),26.1,11.2 µM (inactive),6.52 µM (inactive),
COc1ccc(/C=C2/S/C(=N\c3ccccc3)N(NC(=O)Cc3ccccc3)C2=O)cc1,> 100 µM (inactive),> 100 µM (inactive),> 100 µM (inactive),74.3 µM (inactive),> 100 µM (inactive),> 100 µM (inactive),,> 100 µM (inactive),> 100 µM (inactive),,> 100 µM (inactive),> 100 µM (inactive),> 100 µM (inactive),> 100 µM (inactive),> 100 µM (inactive),> 100 µM (inactive),> 100,> 100 µM (inactive),,> 100 µM (inactive)
CC/C=C/C(=O)CC(O)(C(F)(F)F)C(F)(F)F,> 100 µM (inactive),54.8 µM (inactive),> 100 µM (inactive),> 100 µM (inactive),> 100 µM (inactive),32.4 µM (inactive),,92.7 µM (inactive),,> 100 µM (inactive),> 100 µM (inactive),> 100 µM (inactive),> 100 µM (inactive),> 100 µM (inactive),> 100 µM (inactive),> 100 µM (inactive),> 100,> 100 µM (inactive),,22.5 µM (inactive)
N#Cc1c(N)nc2[nH]nc(N)c2c1-c1ccc(Cl)cc1,4.8 µM (inactive),,11.9 µM (inactive),8.95 µM (inactive),5.21 µM (inactive),1.81 µM (inactive),2.56 µM (inactive),9.75 µM (inactive),1.88 µM (inactive),2.1 µM (inactive),5.66 µM (inactive),3.84 µM (inactive),6.38 µM (inactive),7.66 µM (inactive),5.85 µM (inactive),,3.82,2.11 µM (inactive),3.02 µM (inactive),0.656 µM (active)
O=[N+]([O-])c1ccc2nc(Cl)n[n+]([O-])c2c1,17.9 µM (inactive),2.89 µM (inactive),17 µM (inactive),12.2 µM (inactive),18.5 µM (inactive),,12 µM (inactive),0.668 µM (active),15.2 µM (inactive),15.9 µM (inactive),22 µM (inactive),6.68 µM (inactive),11.7 µM (inactive),24.3 µM (inactive),13.8 µM (inactive),14.4 µM (inactive),13.4,15.1 µM (inactive),16 µM (inactive),0.65 µM (active)
c1ccc(C(=NNc2nc3ccccc3o2)c2ccccn2)nc1,0.188 µM (active),0.0327 µM (active),< 0.0175 µM (active),0.0261 µM (active),< 0.0162 µM (active),< 0.01 µM (active),0.0776 µM (active),0.0439 µM (active),0.0883 µM (active),0.0182 µM (active),0.151 µM (active),0.0818 µM (active),0.0931 µM (active),0.0245 µM (active),0.232 µM (active),,0.0299,0.158 µM (active),0.0723 µM (active),0.182 µM (active)
Cn1cnc([N+](=O)[O-])c1Sc1nc(N)nc2c1ncn2C1OC(CO)C(O)C1O (stereo unspecified),2.36 µM (inactive),2.98 µM (inactive),1.88 µM (inactive),16.4 µM (inactive),8.39 µM (inactive),1.33 µM (inactive),9.38 µM (inactive),9.44 µM (inactive),0.497 µM (active),17.8 µM (inactive),11 µM (inactive),6.22 µM (inactive),2.9 µM (inactive),0.182 µM (active),1.5 µM (inactive),6.44 µM (inactive),6.84,3.78 µM (inactive),6.19 µM (inactive),
O=C1/C(=C/c2ccccc2)Oc2cc(O)ccc21,> 100 µM (inactive),> 100 µM (inactive),,> 100 µM (inactive),> 100 µM (inactive),,70.3 µM (inactive),> 100 µM (inactive),,,> 100 µM (inactive),> 100 µM (inactive),> 100 µM (inactive),> 100 µM (inactive),> 100 µM (inactive),> 100 µM (inactive),> 100,> 100 µM (inactive),> 100 µM (inactive),
